Measured values as given in US11628159B2, “Cell-protective compounds and their use” (ETH ZURICH, priority 2017, dated 2023).

Key:
B6 mice with AAC = test: Chronic pressure overload (AAC) model, 7 days of treatment: cardiac p-Srsf1 and echocardiography; type: in vivo, mouse; details: 5 mg/kg/d for 7 days
Method: A, The GRK2-mediated phosphorylation of Srsf1 was determined by immunoblot in cardiac lysates prepared from hearts of non-transgenic B6 mice after treatment (i.p.) for 5 h with 10 mg/kg of 1-(1,3-benzodioxol-5-yl)-4-(cyclopropane-carbonyl)-3-hydroxy-2-phenyl-2H-pyrrol-5-one (“Compound-1”), 4-(1,3-benzodioxol-5-yl)pyrimidine (“Compound-4”), 1-(1,3-benzodioxol-5-ylmethyl)-5-(4-fluorophenyl)-2-methyl-pyrrole-3-carboxamide (“Compound-2”), or (4R)-N3-(1,3-benzodioxol-5-ylmethyl)-N4-[[3-(trifluoromethyl)phenyl]-methyl]pyrrolidine-3,4-dicarboxamide (“Compound-5”) relative to vehicle-treated B6 controls (“con”). […] B, Left panel: The AAC-induced cardiac p-Srsf1 content was determined in cardiac lysates from B6 mice with AAC after treatment for 7 days with 5 mg/kg/d of 1-(1,3-benzodioxol-5-yl)-4-(cyclopropane-carbonyl)-3-hydroxy-2-phenyl-2H-pyrrol-5-one (“Compound-1”) or (4R)-N3-(1,3-benzodioxol-5-ylmethyl)-N4-[[3-(trifluoromethyl)phenyl]-methyl]pyrrolidine-3,4-dicarboxamide (“Compound-5”) relative to vehicle-treated B6 controls with AAC (“AAC-con”). […] Right and lower panels: Cardiac function parameters were determined by echocardiography in B6 mice with AAC after treatment for 7 days with “Compound-1” or “Compound-5” relative to vehicle-treated B6 controls with AAC ((±s.d.; n=5 (A) and n=3 (B); Dunnett's Multiple Comparison Test vs. con (A) or AAC-con (B)). […]

GRK2 = target: T1, GRK2 (Mus musculus, UniProt Q99MK8); test: Depletion of GRK2 from Tg-RKIP heart lysates by affinity purification of RKIP; type: binding; details: serine-153 phosphorylated transgenic RKIP, n=4
T1 construct: from tissue; host or cells: heart lysate of Tg-RKIP mice
T1 sequence (Q99MK8 1-689): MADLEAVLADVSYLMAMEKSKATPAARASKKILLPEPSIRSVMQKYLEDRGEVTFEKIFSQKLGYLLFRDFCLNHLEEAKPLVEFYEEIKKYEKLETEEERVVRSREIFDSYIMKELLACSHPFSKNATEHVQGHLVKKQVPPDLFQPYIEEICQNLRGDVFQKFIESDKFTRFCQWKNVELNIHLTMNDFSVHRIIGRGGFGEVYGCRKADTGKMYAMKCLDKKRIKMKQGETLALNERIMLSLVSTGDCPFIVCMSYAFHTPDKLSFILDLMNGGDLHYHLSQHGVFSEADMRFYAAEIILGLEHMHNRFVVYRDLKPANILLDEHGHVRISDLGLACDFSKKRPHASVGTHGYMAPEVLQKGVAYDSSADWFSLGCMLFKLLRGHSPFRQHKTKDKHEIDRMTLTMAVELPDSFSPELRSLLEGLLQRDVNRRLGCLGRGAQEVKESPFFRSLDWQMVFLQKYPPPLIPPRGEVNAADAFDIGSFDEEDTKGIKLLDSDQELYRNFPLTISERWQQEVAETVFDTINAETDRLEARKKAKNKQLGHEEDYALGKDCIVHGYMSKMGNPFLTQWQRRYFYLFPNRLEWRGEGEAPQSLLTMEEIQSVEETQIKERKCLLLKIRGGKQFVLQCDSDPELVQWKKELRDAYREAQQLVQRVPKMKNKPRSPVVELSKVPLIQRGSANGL
Excerpt: A, Immunoblot detection of serine-153 phosphorylation of RKIP (pS153) in Tg-RKIP and B6 control hearts (n=5 mice/group). B, Removal of RKIP by affinity purification (AP) with immobilized RKIP-specific antibodies depletes the GRK2 protein from Tg-RKIP heart lysates. A control affinity purification with unrelated antibodies did neither deplete RKIP nor GRK2. Upper panels show representative experiments and lower panels show quantitative data evaluation (±s.d., n=4; *, p=0.0286; Mann Whitney Test). C, Isoproterenol-stimulated cAMP response in neonatal cardiomyocytes from Tg-RKIP and Tg-GRK2-K220R mice (n=6; ±s.d.).
The GRK2-inhibitory activity of transgenic RKIP (human RKIP˜PEBP1) was controlled in vivo. The phosphorylation of RKIP on serine-153 switches RKIP from Raf1 inhibition to GRK2 inhibition (Lorenz K, et al., Nature 426, 574-579 (2003)). Substantial serine-153 phosphorylation of RKIP was documented by immunoblot detection in Tg-RKIP hearts (FIG. 7A). […] We determined the GRK2 inhibition-mediated resensitization of the isoproterenol-stimulated cAMP response in neonatal cardiomyocytes as readout for GRK2 inhibition by RKIP and GRK2-K220R, respectively (Abd Alla, J, et al., J. Biol. Chem. 291, 2583-2600 (2016); Kong K C, et al., Biochemistry 47, 9279-9288 (2008)).

GPCR phosphorylation = details: Lorenz K, et al., Nature 426, 574-579 (2003); read-out: reported IC50 value for RKIP-mediated inhibition of GPCR phosphorylation; cited from earlier work

Molecule | cardiac performance after chronic pressure overload imposed by AAC (B6 mice with AAC; echocardiography) | chronic pressure overload-induced cardiac p-Srsf1 content (B6 mice with AAC; relative to vehicle) | GRK2 protein bound and neutralized in Tg-RKIP hearts (GRK2) [%] | IC50 (GPCR phosphorylation) [nM]
O=C(C1=C(O)C(c2ccccc2)N(c2ccc3c(c2)OCO3)C1=O)C1CC1 (stereo not shown) [Compound-1, 1-(1,3-benzodioxol-5-yl)-4-(cyclopropane-carbonyl)-3-hydroxy-2-phenyl-2H-pyrrol-5-one] | improved | retarded | – | –
RKIP: raf kinase inhibitor protein, a dual-specific GRK2 and Raf kinase inhibitor (protein, UniProt P30086 2-187, looked up) Phosphatidylethanolamine-bindi …: PVDLSKWSGPLSLQEVDEQPQHPLHVTYAGAAVDELGKVLTPTQVKNRPTSISWDGLDSGKLYTLVLTDPDAPSRKDPKYREWHHFLVVNMKGNDISSGTVLSDYVGSGPPKGTGLHRYVWLVYEQDRPLKCDEPILSNRSGDHRGKFKVASFRKKYELRAPVAGTCYQAEWDDYVPKLYEQLSGK | – | – | 90.4 | 460
